Columns and labels:
[1] = tested on: laser-induced choroidal neovascularization (CNV); assay: Laser-induced model of choroidal neovascularization (CNV); type: in vivo
Method: A laser-induced model of CNV was employed, as known in the art, to determine whether blockade of IP receptors alone is sufficient to inhibit CNV. See e.g., Francois et al., 1975, Am. J. Ophthalmol. 79:206-210; Edelman & Castro, 2000, Exp. Eye Res. 71:523-533; Goody, R. J., et al., 2011, Exp. Eye. Research 92:464-472. Test rats were administered laser treatment after which vehicle (50% propylene glycol in H2O) or IP receptor antagonist Formula II was administered. The area of subsequently identified CNV was quantified by methods known in the art. […] Moreover, as depicted in FIG. 2C, the area of CNV was reduced on a per lesion basis.

[2] = biological target: T1, IP receptor (Homo sapiens, UniProt P43119); assay: Inhibition of 100 nM cicaprost-induced VEGF secretion in TNFα-stimulated human macrophages; type: cell-based; settings: TNFα-stimulated human macrophages from two individual donors, FIG. 1B
T1 construct: endogenous in cells; host or cells: TNFα-stimulated human macrophages from individual donors
T1 sequence (P43119 whole entry): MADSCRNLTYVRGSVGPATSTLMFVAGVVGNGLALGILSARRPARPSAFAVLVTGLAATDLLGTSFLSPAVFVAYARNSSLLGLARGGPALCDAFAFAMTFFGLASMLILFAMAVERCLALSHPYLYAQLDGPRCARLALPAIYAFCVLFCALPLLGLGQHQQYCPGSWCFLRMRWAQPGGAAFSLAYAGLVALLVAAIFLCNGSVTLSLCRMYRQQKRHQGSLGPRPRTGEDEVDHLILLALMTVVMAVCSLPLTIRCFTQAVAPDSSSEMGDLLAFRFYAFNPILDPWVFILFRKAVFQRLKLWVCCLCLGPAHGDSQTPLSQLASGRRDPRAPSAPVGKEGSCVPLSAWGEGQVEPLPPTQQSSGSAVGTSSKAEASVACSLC
Source text: (§1) A TNFα-stimulated human macrophage system was employed, as known in the art, to assess the effect of IP receptor agonist and IP receptor antagonist on induction of VEGF secretion.
In order to test whether a IP receptor antagonist can reverse the effect of cicaprost-induced VEGF secretion in TNFα-stimulated human macrophages, the IP receptor antagonist Formula I was employed.

[3] = biological target: T1, IP receptor; assay: Cicaprost-induced VEGF secretion in TNFα-stimulated human macrophages; type: cell-based; settings: FIG. 1A
Source text: as §1

O=C(N[C@@H](Cc1ccc(F)cc1)C(=O)O)OCc1cc2cc(-c3cccc(F)c3)ccc2o1 [Formula II]
area of CNV per test subject (rat vs. rat) ([1]; after laser treatment, vs vehicle 50% propylene glycol in H2O, n=6, FIG. 2A): significantly reduced
area of CNV, comparison of each eye (eye vs. eye) ([1]; rat, after laser treatment, vs vehicle, n=12, FIG. 2B): reduced
area of CNV on a per lesion basis (lesion vs. lesion) ([1]; rat, after laser treatment, vs vehicle, n=38, FIG. 2C): reduced
inhibition of laser-induced choroidal neovascularization (CNV) ([1]; rat, FIG. 2 overall, vs vehicle 50% propylene glycol in H20): sufficient to inhibit laser-induced choroidal neovascularization

CC(C)Oc1ccc(Cc2ccc(NC3=NCCN3)cc2)cc1 [Formula I]
inhibition of cicaprost-induced VEGF secretion [2]: dose dependently inhibits

CCC#CC[C@H](C)[C@H](O)C#C[C@@H]1[C@H]2C/C(=C/COCC(=O)O)C[C@H]2C[C@H]1O [cicaprost]
induction of VEGF secretion [3]: dose dependently induces VEGF secretion

Source: patent publication US9321745B2, “Inhibition of neovascularization by inhibition of prostanoid IP receptors” (ALLERGAN, INC., priority 2013, dated 2016)
